Results as given in ChEMBL document CHEMBL5465560, “Selectivity Literature for EUbOPEN Chemogenomic Library” (2024).
Blank lines part the entries; values can stand above or below the compound they belong to.

Assays:
[1] = target: Insulin-like growth factor 1 receptor (Homo sapiens, UniProt P08069); settings: at 3 µM
[2] = target: T1, Dual specificity mitogen-activated protein kinase kinase 5 (Homo sapiens) (UniProt Q13163); assay: Selectivity interaction (KinomeScan (DiscoverX)) EUB0000607a MAP2K5; settings: at 10 µM
T1 sequence (whole entry): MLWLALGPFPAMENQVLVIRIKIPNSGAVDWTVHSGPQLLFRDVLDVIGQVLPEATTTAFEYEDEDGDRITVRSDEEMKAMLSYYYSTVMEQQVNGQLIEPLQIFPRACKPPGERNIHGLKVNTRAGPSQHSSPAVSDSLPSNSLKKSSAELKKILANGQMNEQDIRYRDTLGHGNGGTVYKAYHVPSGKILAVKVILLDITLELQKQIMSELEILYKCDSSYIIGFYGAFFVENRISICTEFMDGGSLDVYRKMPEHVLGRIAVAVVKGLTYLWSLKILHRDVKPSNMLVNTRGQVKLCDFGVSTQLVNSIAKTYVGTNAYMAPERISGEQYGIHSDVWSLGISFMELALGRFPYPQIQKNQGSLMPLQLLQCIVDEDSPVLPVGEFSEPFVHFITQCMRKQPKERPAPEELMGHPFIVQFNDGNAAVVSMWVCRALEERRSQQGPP

[3] = target: T2, Bone morphogenetic protein receptor type-2 (Homo sapiens) (UniProt Q13873); assay: Selectivity interaction (KinomeScan (DiscoverX)) EUB0001619a BMPR2; settings: at 1 µM
T2 sequence (whole entry): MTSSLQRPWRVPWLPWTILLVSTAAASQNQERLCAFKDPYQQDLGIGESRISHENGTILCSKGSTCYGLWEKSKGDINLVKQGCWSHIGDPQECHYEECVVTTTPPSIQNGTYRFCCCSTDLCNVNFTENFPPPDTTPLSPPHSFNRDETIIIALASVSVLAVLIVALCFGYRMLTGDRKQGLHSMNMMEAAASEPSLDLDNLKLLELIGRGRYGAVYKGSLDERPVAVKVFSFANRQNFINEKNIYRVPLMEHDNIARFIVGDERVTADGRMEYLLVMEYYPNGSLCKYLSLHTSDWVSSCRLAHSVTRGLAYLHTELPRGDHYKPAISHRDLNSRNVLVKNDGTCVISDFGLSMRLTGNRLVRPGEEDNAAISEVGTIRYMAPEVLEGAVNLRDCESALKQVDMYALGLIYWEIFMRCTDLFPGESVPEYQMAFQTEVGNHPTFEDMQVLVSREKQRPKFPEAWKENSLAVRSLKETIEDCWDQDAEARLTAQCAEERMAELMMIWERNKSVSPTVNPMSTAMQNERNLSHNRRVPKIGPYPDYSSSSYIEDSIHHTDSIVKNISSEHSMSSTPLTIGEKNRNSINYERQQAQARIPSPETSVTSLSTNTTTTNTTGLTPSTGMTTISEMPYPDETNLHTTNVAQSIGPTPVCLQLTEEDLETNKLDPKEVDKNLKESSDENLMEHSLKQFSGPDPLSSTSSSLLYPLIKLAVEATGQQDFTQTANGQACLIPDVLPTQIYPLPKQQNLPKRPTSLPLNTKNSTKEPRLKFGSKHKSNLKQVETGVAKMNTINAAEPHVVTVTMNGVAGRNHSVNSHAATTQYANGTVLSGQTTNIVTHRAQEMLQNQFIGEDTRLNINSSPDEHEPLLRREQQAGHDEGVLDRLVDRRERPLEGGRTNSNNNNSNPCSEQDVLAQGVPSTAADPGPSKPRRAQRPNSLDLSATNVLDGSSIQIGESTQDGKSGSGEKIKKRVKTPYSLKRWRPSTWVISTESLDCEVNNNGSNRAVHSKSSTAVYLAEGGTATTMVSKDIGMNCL

[4] = target: T3, Serine/threonine-protein kinase 36 (Homo sapiens) (UniProt Q9NRP7); assay: Selectivity interaction (KinomeScan (DiscoverX)) EUB0000045b STK36
T3 sequence (whole entry): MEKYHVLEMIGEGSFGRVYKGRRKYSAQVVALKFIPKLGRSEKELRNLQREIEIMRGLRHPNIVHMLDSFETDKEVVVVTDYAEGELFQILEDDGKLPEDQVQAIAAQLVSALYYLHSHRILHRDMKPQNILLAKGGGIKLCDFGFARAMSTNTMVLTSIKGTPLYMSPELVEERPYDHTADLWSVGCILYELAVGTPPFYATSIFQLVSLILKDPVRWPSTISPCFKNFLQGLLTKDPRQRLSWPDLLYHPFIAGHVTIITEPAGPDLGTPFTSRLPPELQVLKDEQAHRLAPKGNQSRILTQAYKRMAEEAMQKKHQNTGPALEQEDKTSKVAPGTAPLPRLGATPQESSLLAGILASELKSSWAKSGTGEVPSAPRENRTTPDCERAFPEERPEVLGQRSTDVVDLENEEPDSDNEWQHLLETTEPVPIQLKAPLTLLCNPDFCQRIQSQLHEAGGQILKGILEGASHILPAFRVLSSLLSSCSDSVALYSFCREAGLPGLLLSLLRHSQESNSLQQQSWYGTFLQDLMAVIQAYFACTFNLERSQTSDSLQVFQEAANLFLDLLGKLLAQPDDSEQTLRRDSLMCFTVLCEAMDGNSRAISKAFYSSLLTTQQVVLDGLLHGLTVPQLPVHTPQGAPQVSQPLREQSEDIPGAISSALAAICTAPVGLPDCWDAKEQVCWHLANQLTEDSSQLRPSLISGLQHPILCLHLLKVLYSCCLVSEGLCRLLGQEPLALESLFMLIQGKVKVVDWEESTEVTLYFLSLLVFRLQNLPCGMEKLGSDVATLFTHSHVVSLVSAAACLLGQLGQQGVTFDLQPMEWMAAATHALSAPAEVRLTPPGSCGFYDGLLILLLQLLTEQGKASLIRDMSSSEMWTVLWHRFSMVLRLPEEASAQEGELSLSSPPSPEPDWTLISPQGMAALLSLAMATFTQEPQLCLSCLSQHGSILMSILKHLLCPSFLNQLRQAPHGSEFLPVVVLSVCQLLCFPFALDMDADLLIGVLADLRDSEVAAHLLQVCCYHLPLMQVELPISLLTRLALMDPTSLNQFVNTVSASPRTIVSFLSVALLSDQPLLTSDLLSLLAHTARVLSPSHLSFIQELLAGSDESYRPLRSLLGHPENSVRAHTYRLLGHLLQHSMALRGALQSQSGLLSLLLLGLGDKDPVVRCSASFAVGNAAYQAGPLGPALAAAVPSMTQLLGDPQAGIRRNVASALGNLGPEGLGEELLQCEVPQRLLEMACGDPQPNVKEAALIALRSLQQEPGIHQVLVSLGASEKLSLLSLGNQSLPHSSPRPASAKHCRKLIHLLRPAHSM

[5] = target: Serine/threonine-protein kinase Nek6 (Homo sapiens) (UniProt Q9HC98); assay: Selectivity interaction (ProQinase) EUB0000171b NEK6
Serine/threonine-protein kinase Nek6 (Homo sapiens), sequence (Q9HC98 whole entry): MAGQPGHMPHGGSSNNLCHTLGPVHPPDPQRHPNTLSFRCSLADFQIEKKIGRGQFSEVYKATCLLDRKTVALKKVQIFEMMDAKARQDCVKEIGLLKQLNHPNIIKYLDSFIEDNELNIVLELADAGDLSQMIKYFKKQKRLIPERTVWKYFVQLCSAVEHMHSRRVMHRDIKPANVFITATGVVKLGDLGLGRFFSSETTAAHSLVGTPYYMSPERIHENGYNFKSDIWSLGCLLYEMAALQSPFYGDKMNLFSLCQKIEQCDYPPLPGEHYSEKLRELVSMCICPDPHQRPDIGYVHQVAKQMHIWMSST

Insulin-like growth factor 1 receptor, sequence (P08069 31-736 limits assumed): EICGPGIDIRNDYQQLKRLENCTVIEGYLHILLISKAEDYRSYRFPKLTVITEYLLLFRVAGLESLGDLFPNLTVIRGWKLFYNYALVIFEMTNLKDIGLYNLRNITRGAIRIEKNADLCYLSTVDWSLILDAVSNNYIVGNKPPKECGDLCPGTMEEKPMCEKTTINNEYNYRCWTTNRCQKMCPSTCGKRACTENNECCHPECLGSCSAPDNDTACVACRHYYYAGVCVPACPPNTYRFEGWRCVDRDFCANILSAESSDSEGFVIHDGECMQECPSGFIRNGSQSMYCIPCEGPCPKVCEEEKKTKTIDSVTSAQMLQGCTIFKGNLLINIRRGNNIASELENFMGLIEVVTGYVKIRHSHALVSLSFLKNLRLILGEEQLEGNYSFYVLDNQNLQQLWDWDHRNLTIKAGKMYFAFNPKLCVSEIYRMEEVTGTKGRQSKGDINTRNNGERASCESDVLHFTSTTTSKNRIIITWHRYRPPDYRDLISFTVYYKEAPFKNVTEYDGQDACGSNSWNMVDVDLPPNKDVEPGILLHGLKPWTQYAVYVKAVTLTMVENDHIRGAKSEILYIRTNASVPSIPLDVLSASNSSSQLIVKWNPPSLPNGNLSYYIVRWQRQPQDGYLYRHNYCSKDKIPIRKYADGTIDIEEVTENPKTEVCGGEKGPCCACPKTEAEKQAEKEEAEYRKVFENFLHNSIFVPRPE
Insulin-like growth factor 1 receptor, sequence (P08069 741-1367 limits assumed): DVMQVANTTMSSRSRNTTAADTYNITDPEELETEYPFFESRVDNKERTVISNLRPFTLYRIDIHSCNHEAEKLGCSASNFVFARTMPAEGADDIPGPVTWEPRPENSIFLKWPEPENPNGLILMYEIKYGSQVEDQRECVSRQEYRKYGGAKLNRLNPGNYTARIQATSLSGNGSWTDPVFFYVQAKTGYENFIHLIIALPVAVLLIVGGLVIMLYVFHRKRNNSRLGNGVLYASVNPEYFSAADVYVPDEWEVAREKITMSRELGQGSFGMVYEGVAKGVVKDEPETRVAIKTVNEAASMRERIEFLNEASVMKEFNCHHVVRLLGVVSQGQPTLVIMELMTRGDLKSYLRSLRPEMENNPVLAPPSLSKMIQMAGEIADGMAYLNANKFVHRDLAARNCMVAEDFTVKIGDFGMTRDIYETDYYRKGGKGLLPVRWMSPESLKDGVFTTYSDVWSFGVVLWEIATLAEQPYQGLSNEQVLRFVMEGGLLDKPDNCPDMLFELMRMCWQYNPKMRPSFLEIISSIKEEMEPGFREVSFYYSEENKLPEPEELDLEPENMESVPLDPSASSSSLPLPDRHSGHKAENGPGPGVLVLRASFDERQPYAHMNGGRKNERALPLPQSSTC

% of inhibition [1]: 100%
SMILES: CCc1cc(Nc2nccc(-c3c(-c4ccc(OC)c(C(=O)Nc5c(F)cccc5F)c4)nc4ccccn34)n2)c(OC)cc1N1CCC(N2CCN(S(C)(=O)=O)CC2)CC1

SMILES: CNC(=O)Nc1ccc(-c2nc(N3CC4CCC(C3)O4)c3cnn(C4CCC5(CC4)OCCO5)c3n2)cc1
% of control [2]: 93%

SMILES: N#Cc1cccc(-c2c[nH]c3ncnc(N4CCOCC4)c23)c1
% of control [3]: 80%

SMILES: C=CC(=O)Nc1cc(-n2c(=O)ccc3cnc4ccc(-c5ccc(NS(C)(=O)=O)cc5)cc4c32)ccc1C
% of control ([4]; at 1 µM): 100%
% of control ([4]; at 10 µM): 100%

% of control ([5]; at 1 µM): 91%
% of control ([5]; at 5 µM): 92%
SMILES: C=CC(=O)Nc1cccc(C(=O)Nc2ccc(Nc3cc(-c4[nH]c(SC)nc4C)ccn3)cc2)c1
